Experiment: Clinical single-dose crossover study: relative bioavailability and dose proportionality from plasma ramipril and ramiprilat, tablets vs ALTACE capsules
Assay type: in vivo, human
[1] = doses increased from 2.5 to 20 mg

Method: The study followed a single-dose, open-label, four-period, four-treatment, crossover design and utilized a two-stage randomization process for 4 dose levels and 2 formulations. Each treatment was separated by a 2 week washout period. All treatments were administered following an overnight fast.
Thirty subjects were planned to be enrolled in the study to complete 24.
The ANOVA model included subject, period and formulation as fixed effects, and subject as a random effect. […] The ratios of LSM and CI were expressed as a percentage relative to the commercial capsules (ALTACE®).
Separately for the test (A, C, E, and G) and reference (B, D, F, and H) formulations, dose proportionality was evaluated. […] The ANOVA model included period as a fixed effect, intercept as a random effect, and in-transformed dose as a covariate.

With C[C@H](N[C@@H](CCc1ccccc1)C(=O)O)C(=O)N1[C@H](C(=O)O)C[C@@H]2CCC[C@@H]21 [ramiprilat] as the compound, how does the “increase of AUC0-24 with dose (geometric means)” value [1] read?
Its value is “proportional”.

What about the “increase of Cmax with dose (geometric means)” value [1] of the same compound?
The value was “more than proportional increase”.

And the “increase of AUC0-t and AUC0-48 with dose (geometric means)” value (ramipril doses 2.5 to 20 mg)?
Its value is “less than proportional increase”.

— patent US20060134213A1 (priority 2004, published 2006)
